Source: article PMC2375353, “Effective treatment of experimental U-87MG human glioblastoma in nude mice with a targeted cytotoxic bombesin analogue, AN-215” (British Journal of Cancer, 2002)

Test system: U-87MG human glioblastoma xenografted into nude mice
Assay: Experiment 2: growth of s.c. U-87MG xenografts, with BN receptor blockade
Format: in vivo, human tumour in male athymic nude mice
Settings: RC-3095 200 μg i.v. 15 min before AN-215 150 nmol kg^-1
Method: Human glioblastoma cell line U-87MG was obtained from American Type Culture Collection (Manassas, VA, USA) and cultured as described ([Pinski et al, 1994]). Male athymic (Ncr nu/nu) nude mice, approximately 6-weeks-old on arrival, were obtained from the National Cancer Institute (Frederick Cancer Research and Development Center, Frederick, MD, USA), and housed in laminar air-flow cabinets under pathogen-free conditions with a 12 h light/12 h dark schedule, and fed autoclaved standard chow and water ad libitum. Xenografts were initiated by s.c. injection of 12×10^6 U-87MG cells into the right flanks of five male nude mice. Tumours resulting after 2 weeks were aseptically dissected, mechanically minced, and 3-mm^3 pieces of tumour tissue were transplanted s.c. with a trocar needle. The take rate was 100%. All experiments were performed in accordance with institutional ethical guidelines of animal care and were essentially in agreement with [UKCCCR guidelines (1998)] for the welfare of animals in experimental neoplasia.
Experiment 2 was started when U-87MG tumours had grown to 70–84 mm^3 in volume. The animals were divided into the following treatment groups: group 1 (10 mice), control, vehicle solution; group 2 (10 mice), analogue AN-215; group 3 (five mice), unconjugated mixture of the cytotoxic radical AN-201 and BN antagonist RC-3095. All compounds were injected i.v. at 150 nmol kg^−1 of BW on days 1, 10, and 17. In addition, one group of tumour-bearing mice received an i.v. injection of 200 μg of BN antagonist RC-3095 15 min before each administration of AN-215 at a dose of 150 nmol kg^−1 of BW on days 1, 10 and 17 as in the case of group 2. The experiment was terminated on day 20 as described above.
Data are expressed as mean±s.e. Differences between mean values were evaluated by two-tailed Student's t-test, P<0.05 being considered significant.

For “[D-Tpi^6,Leu^13ψ(CH2NH)Leu^14]BN (6-14) [RC-3095, reference compound]”, which “Antitumour effect after BN receptor blockade” value is on record?
The value was “attenuated the antitumour effect of the cytotoxic BN analogue AN-215”.
